Target: T1, AlaRS G102R binding to Nrp1 (Homo sapiens, UniProt P49588, G102R)
T1 construct: expressed in transfected cells
T1 sequence (P49588 1-968 G102R): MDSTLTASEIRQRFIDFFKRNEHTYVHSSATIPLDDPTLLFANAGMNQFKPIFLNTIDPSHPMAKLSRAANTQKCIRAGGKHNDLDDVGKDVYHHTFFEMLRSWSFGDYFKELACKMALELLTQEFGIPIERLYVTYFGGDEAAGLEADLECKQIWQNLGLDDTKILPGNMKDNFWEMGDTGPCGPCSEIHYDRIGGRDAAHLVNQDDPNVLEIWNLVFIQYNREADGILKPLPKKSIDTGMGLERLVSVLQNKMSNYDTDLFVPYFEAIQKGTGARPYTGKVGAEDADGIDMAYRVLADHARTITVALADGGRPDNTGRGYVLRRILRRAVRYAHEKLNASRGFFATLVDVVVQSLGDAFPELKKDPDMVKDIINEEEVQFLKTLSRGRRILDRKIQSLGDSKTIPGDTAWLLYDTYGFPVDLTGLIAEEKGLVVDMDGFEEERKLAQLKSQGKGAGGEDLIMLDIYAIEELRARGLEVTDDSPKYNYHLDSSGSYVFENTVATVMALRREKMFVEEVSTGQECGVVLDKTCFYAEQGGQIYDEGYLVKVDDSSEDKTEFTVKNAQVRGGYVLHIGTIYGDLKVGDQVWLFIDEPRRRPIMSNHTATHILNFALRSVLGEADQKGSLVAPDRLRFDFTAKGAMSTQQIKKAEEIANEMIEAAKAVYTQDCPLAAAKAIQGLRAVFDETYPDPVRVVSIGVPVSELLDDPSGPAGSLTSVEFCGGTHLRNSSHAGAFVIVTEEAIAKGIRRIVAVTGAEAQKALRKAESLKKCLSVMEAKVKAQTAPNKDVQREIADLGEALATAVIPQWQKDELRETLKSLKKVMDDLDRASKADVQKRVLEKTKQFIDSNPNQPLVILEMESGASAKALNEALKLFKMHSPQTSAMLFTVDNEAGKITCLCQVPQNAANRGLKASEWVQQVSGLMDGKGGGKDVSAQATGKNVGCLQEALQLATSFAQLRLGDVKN
Assay: Co-IP of HA-AlaRS mutant with Nrp1 in transfected cells
Type: cell-based
Settings: 20 µM Tanshinone I for 24 h, ImageJ, average of three repeats
Protocol: To further investigate whether Tanshinone I-induced conformational changes in AlaRS CMT mutants affect their interaction with Nrp1, Co-IP experiments were performed in cells treated with Tanshinone I. By comparing Co-IP results obtained before and after treatment, we assessed the influence of the drug on the binding strength and mode between the AlaRS CMT mutants and Nrp1. […] To confirm the direct effect of Tanshinone I on the interaction between AlaRS CMT mutants and Nrp1, pull-down experiments were performed. […] Given that the interaction between AlaRS mutants and Nrp1 is associated with disease progression in CMT, the ability of Tanshinone I to disrupt this binding highlights its potential to intervene in the pathogenic mechanisms of these diseases.
Figure 7 The impact of Tanshinone I on the interaction between AlaRS mutants and Nrp1. (A) Co-IP assays were conducted to assess the binding between HA-AlaRS mutants and Nrp1, both with and without treatment with 20 µM Tanshinone I for 24 h. […] (C) Pull down assay was performed to detect the binding between AlaRS mutants and GST-Nrp1 b1 with or without 20 µM Tanshinone I. (D) Relative quantification statistics of the AlaRS mutants pulled down from the GST pull down experiments after Tanshinone I treatment were performed using ImageJ. (E) The cell viability of 293T and NSC34 cells treated with different concentrations of Tanshinone I was assessed using the CCK-8 assay over a 24 h period. TEXT PRINTED IN THE PICTURE: (B) Tanshinone I: Mean density band (N71Y): 0.60; Mean density band (G102R): 0.53; Mean density band (R326W): 0.50; Mean density band (R329H): 0.50; Mean density band (E337K): 0.62 | (D) Tanshinone I: Mean density band (N71Y): 0.82; Mean density band (G102R): 0.76; Mean density band (R326W): 0.84; Mean density band (R329H): 0.84; Mean density band (E337K): 0.90
Total protein was extracted from cells using RIPA buffer (50 mM Tris-HCl pH 7.4, 150 mM NaCl, 1% NP40, 1 mM EDTA) supplemented with a protease and phosphatase inhibitor cocktail (Roche, Basel, Switzerland). After SDS-PAGE, the protein on the gel was transferred to a PVDF membrane (Bio-Rad, Hercules, CA, USA) and then blocked with 5% non-fat dry milk in TBST for 1 h. Then, the membranes were incubated with the indicated primary antibodies and corresponding HRP-conjugated secondary antibodies. Signals were detected using the Bio-Rad ChemiDoc system (Bio-Rad, Shanghai, China). The following antibodies were used: Flag (Ray antibody biotech, Beijing, China, 1:3000), HA (Ray antibody biotech, Beijing, China, 1:3000), and GAPDH (Ray antibody biotech, Beijing, China, 1:5000).
To detect the binding of Nrp1 and AlaRS mutants in cells, whole-cell lysates (500 μg) were treated overnight with 2 μg of anti-Flag antibody in RIPA buffer. Next, Protein A/G agarose beads (#sc-2003, Santa Cruz Biotechnology, Santa Cruz, CA, USA) were applied to the lysates and the samples were further treated for 8–12 h with rotation. Samples were washed three times with RIPA buffer. Subsequently, the immunoprecipitations were resuspended into 2 × SDS-loading buffer. The samples were then boiled for 10 min and detected using Western blot. The experiment was repeated three times.

## Cc1coc2c1C(=O)C(=O)c1c-2ccc2c(C)cccc12 [Tanshinone I]
  Mean density band (G102R), relative quantification of AlaRS mutant immunoprecipitated: 0.53
